Patent publication US10106523B2, “Amide compound” (ASTELLAS PHARMA INC., priority 2014, dated 2018)

Assays:
[1] = molecular target: rat EP4 receptor (Rattus norvegicus, UniProt P43114); assay: Rat EP4 receptor antagonistic action by measurement of cAMP amount in CHO-K1 cells; format: cell-based; parameters: expressed in transfected cells; details: PGE2 100 nmol/L, CHO-K1 cells stably expressing rat EP4, average of two experiments; read-out: IC50 value with respect to the cAMP production action by PGE2 in rat EP4 receptor expressing CHO-K1 cells
Procedure: Test Example 4: Evaluation Test of Rat EP4 Receptor Antagonistic Action by Measurement of cAMP Amount
Construction of Vector Expressing Rat EP4 Receptor:
The construction was carried out in the same manner as in Test Example 1.
Construction of Cells Stably Expressing Rat EP4 Receptor:
The expression vector of a rat EP4 receptor was transfected into a CHO—K1 cell (ATCC No.: CCL-61). The transfection was carried out according to an appended instruction, using Lipofectoamine (registered trademark) 2000 reagent (Invitrogen Inc.). After the transfection, the cells were cultured in an α-MEM culture medium (product No. 12571063, Invitrogen Inc.) containing G418 (Nakalai Tesque Inc.) to acquire a drug-resistant clone.
Cell Culture and Treatment with Compound:
CHO—K1 cells stably expressing a rat EP4 were seeded in 96-well plates at 0.5×10^4 cells/100 μL and cultured overnight. […]
The cAMP amount in the cell lysate was measured using a cAMP HiRange kit. […] After incubation, the fluorescence intensity of the cryptate at 620 nm and the fluorescence intensity of the d2 at 665 nm were measured using ARVO1420. The cAMPs of 280, 70, 17.5, 4.38, 1.09, 0.27, and 0.068 nmol/L were added to each well to create a standard curve and the fluorescence intensity was measured as described above. […] An average value was calculated from two experiment results.

[2] = molecular target: T1, rat EP2 receptor (Rattus norvegicus, UniProt Q62928); assay: Selectivity test: antagonistic action on rat EP2 receptor (cAMP amount, CHO-K1 cells); format: cell-based; details: PGE2 100 nmol/L, CHO-K1 cells stably expressing rat EP2; read-out: Concentration up to which no inhibitory action of 50% or more on the increase in intracellular cAMP amount due to PGE2 through the rat EP2 receptor
T1 construct: expressed in transfected cells
Procedure: Test Example 9: Evaluation Test of Receptor Antagonistic Action on Rat EP1/EP2/EP3 Receptor (Selectivity Test)
The antagonistic action of Compound A on other subtypes ([…], EP2, and EP3) of the rat-derived PGE2 receptor was evaluated. For EP1 and EP3, the intracellular Ca^2+ amount was used as an indicator, and for EP2, the intracellular cAMP amount was used as an indicator, so as to investigate the action of the test compound.
Construction of Rat EP1, EP2, or EP3 Receptor Expressing Vector: A rat EP1 receptor gene (GenBank accession No.: D88751.1), a rat EP2 receptor gene (GenBank accession No.: NM_031088.1), or a rat EP3 receptor gene (GenBank accession No.: NM_012704.1) were inserted respectively into an expression vector pcDNA3.1-V5-His-TOPO (Invitrogen Inc.).
Construction of Cell Stably Expressing Rat EP1, EP2, or EP3 Receptor: […]
The amount of cAMP contained in the cell lysate was measured with a cAMP HiRange kit in the same manner as in Test Example 4. The ratio of the cAMP amount when the test compound was treated was calculated, by taking the cAMP amount with addition of PGE2 having a final concentration of 100 nmol/L as 100% and taking the cAMP amount without addition of PGE2 as 0%.

T1 sequence (Q62928 whole entry): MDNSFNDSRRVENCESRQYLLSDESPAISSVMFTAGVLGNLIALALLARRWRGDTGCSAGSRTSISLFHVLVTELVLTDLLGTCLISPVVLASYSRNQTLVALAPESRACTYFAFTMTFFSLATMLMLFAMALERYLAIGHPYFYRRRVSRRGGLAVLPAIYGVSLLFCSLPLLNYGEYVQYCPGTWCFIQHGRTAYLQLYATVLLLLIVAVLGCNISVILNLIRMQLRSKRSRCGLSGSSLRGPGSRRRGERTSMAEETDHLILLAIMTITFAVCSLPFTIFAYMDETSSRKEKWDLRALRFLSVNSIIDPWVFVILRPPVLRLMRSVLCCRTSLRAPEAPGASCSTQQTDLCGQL
Chain of rat EP4 receptor (P43114 whole entry): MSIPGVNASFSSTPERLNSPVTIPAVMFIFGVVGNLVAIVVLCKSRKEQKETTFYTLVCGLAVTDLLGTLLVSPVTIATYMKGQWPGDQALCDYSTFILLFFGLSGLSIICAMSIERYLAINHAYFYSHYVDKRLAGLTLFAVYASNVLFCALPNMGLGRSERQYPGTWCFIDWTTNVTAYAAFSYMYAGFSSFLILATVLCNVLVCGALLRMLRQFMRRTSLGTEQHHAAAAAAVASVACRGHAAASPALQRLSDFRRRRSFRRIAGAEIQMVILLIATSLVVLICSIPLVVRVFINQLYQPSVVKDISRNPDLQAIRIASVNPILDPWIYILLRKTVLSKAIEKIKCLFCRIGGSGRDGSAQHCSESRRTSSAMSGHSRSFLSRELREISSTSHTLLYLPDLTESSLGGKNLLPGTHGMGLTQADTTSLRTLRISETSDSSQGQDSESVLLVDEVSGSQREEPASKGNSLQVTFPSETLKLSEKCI

Cc1nn(Cc2cc3ccccc3cn2)c(C(=O)N[C@@H](C)c2ccc(C(=O)O)cc2)c1Br [Compound A, 4-[(1S)-1-({[4-bromo-1-(isoquinolin-3-ylmethyl)-3-methyl-1H-pyrazol-5-yl]carbonyl}amino)ethyl]benzoic acid]
IC50 [1]: 1.04 nM
IC50 [2]: > 10000 nM
